Data set [1] concerns A549 cells. Nature of the data set: MTT cell viability assay on A549 cells. It is filed as cell-based, human. Particulars: 24 h; for cytotoxicity (A549 cells viability, in words): single concentration 12 µM. The procedure:
All the synthetic coumarins (7, 8a–f, 9a–g, 10, 11, 12a–c, 13a–c, 14–17) were first screened for their in vitro cytotoxic activity at a single concentration (12 µM) against NSCLC cell line (human lung adenocarcinoma A549) for 24 h, using the well-established 3-(4,5-dimethylthiazol-2-yl)-2,5-diphenyltetrazolium bromide (MTT) assay.
The effect of coumarin derivatives on cell viability was evaluated by the MTT assay at a single dose according to the NCI testing protocol or at different concentrations for IC50 determination. Coumarin derivatives were dissolved in dimethyl sulfoxide (DMSO) and then diluted with DMEM. Briefly, cells were plated in 96-well plates (2 × 10^4/well) and each coumarin derivative at 12 µM was added to the culture medium, and the cell cultures were continued for 24 h. Cisplatin (2.6 µM) was used as a reference drug. Thereafter, the medium was replaced with fresh DMEM containing 5 mg/mL MTT. Following an incubation period (4 h) in a humidified CO2 incubator at 37 °C and 5% CO2, the supernatant was removed, and dimethyl sulfoxide solution (DMSO, […]) was added to each cultured plate. After incubation at room temperature for 15 min, the absorbance of the solubilized MTT formazan product was spectrophotometrically measured at 540 nm. Three individual wells were assayed for each treatment, and the percentage viability relative to the control sample was determined as (absorbance of treated cells/absorbance of untreated cells) × 100%. Only the compound that reduced the viability by more than half the value of the control cells were screened in a range of concentration (10^−8 to 10^−3 M) with the A549, H2170, and NHI-3T3 cell lines. The concentration of 9f compound that reduced the viable cell number by 50% (CC50) was determined using a non-linear regression approach, and the mean value of CC50 for each cell type was calculated from triplicate.
Figure 1 Effect of synthetic coumarin derivatives on cell viability. The viability of A549 cells was determined using the MTT assay after exposure at a single concentration (12 µM) of the compounds or cisplatin (2.6 µM) for 24 h. The percentage of inhibition was calculated considering the cells treated with medium (DMEM), which was considered as 100% of cell viability (dotted line). Bars represent the mean ± S.D. from three independent experiments.
1.1. In vitro cytotoxicity assay of 9f compound on A549, H2170 and NIH3T3 cells
In order to determine the cytotoxic effect of 9f compound, the tumor cell lines A549 and H2170, and non-tumor cell line NHI-3T3 (1×10^5 per well) were seeded in the presence of the 9f compound concentration (1×10-3 to 1×10^-8 M) in 96-well microliter culture plate in a humidified CO2 (5%) incubator at 37 °C for 24h. Cell viabilities were measured using MTT assay as described in Materials and Methods Section. Three individual wells were assayed for each treatment and the percentage viability relative to the control sample was determined as (absorbance of treated cells/absorbance of untreated cells)×100%. A nonlinear regression analysis calculated using Prism 7.0 software (Graph- […]
25.8 ± 1.7 µM to NHI-3T3 cells (Figure S1).
Figure S1. Cytotoxicity assay (CC50) of increasing concentration of 9f compound on tumor cell lines (A549 and H2170) and non-tumor cell line (NHI-3T3) after 24 hours using MTT assay. All data were reported as the mean ± S.D. CC50 (M) values were calculated from the dose response curve using Prim 7 software.
(1 picture or pasted object on this page, not shown here)
On the technique in general: Formazan colour is commonly taken as a measure of viable cells.

For data set [2], the system named is A549 cells. Particulars: cited from earlier work.
Data set [3] relates to A549 cells. As to the kind of experiment: In vitro scratch wound healing assay. It is filed as cell-based, human. The following applies: 7 µM, 24 h, IL-1β-stimulated A549 cells. The procedure: To evaluate the effect of 9f on epithelial motility, we performed the scratch assay as described by Cardoso et al.. Cells were maintained in 24-well plates until they reached 90% confluency. Thereafter, a vertical stripe on the cell monolayer was made using a sterile pipette (200 μL) tip. The wells were washed with PBS to remove dead cells and debris, and then, 9f was added at a concentration of 7 µM. As a control, the cells were treated with cell culture medium. Photographs were captured by a digital camera connected to an inverted microscope (Olympus IX70) at 0 and 24 h after scratch. The migration gap area of the cells was measured by ImageJ software (https://imagej.nih.gov/ij/; accessed on 24 November 2020, Center for Information Technology, National Institute of Health, Bethesda, […], USA). Each measurement was repeated three times.
Figure 4 The effect of 9f on the migration of A549 cells assayed by the wound-healing assay. Cells were treated with 9f at 7 µM, and images were captured to calculate the scratch closure. In (A), representative photomicrography images showing the cell migration toward the cell-free area after treatment with DMEM (control) or 9f and after 24 h. […] Values represent mean ± S.D. from three independent experiments. (+++) p < 0.001 compared with respective DMEM-treated cells and (***) p < 0.001 compared with IL-1β-stimulated cell vehicle-treated cells.

Data set [4] has as its system IL-1β-stimulated A549 cells. As to the kind of experiment: IL-1β-induced EMT: cell morphology and F-actin (FITC-phalloidin) staining. It is filed as cell-based, human. Particulars: 7 µM, 1 ng/mL IL-1β, 24 h. The protocol: (§1) For induction of the EMT process, A549 cells (1 × 10^5 per well) were seeded in 24-well culture plates and treated with 1 ng/mL IL-1β (Peprotech, Rocky Hill, NJ, USA) for 24 h. In the unstimulated cells, DMEM medium was added. Then, the morphological alteration of cells was observed under a microscope. This protocol for EMT induction is as reported in the previous literature. To evaluate the effects of coumarin derivative with respect to EMT induced by IL-1β, cells were pretreated with compound 9f at 7 µM, being this treatment also maintained during stimulation with IL-1β for 24 h.
After 24 h, cells were fixed for 15 min at 4 °C with 4% paraformaldehyde in PBS. […] Cell morphology was determined using an inverted epifluorescence microscope (Nikon Eclipse 50i). Fluorescence quantification was done using ImageJ 1.47 software (NIH, Bethesda, MD, USA). Images were analyzed through the “Measure” menu, which allowed analyzing the fluorescence intensity signal per cell from original photomicrographs.
Figure 2 Compound 9f inhibited IL-1β-induced EMT in vitro. […] Cells were photographed using phase-contrast microscopy (A–D) or fluorescence microscopy (E–H). […] Actin (green) was detected via immunofluorescence in formaldehyde-fixed cells with FITC-conjugated phalloidin (1:100). […] Magnification ×100 (insert, magnification ×200) for phase-contrast microscope and ×400 for fluorescence microscope.

For data set [5], the system named is H2170 cells. As to the kind of experiment: MTT cell viability assay (CC50) on H2170 cells. It counts as cell-based. Particulars: Homo sapiens, NCI-H2170, 24 h, mean ± S.D., read-out: CC50 (concentration that reduces the viable cell number by 50%). The text has this:
(§2) Among these two compounds, 9f was the most promising, reducing the A549 cells viability to less than 20%. […] Distinct explanations might be used to sustain this fact, including biochemical and metabolic changes between cell lines. While normal cells follow a set of organized metabolic programs, cancer cells show intrinsic or acquired resistance to apoptosis and also a metabolic reprogramming in order to meet the increased energy demands.
(§3) The effect of coumarin derivatives on cell viability was evaluated by the MTT assay at a single dose according to the NCI testing protocol or at different concentrations for IC50 determination. […] After incubation at room temperature for 15 min, the absorbance of the solubilized MTT formazan product was spectrophotometrically measured at 540 nm. Three individual wells were assayed for each treatment, and the percentage viability relative to the control sample was determined as (absorbance of treated cells/absorbance of untreated cells) × 100%. […]
In order to determine the cytotoxic effect of 9f compound, the tumor cell lines A549 and H2170, and non-tumor cell line NHI-3T3 (1×10^5 per well) were seeded in the presence of the 9f compound concentration (1×10-3 to 1×10^-8 M) in 96-well microliter culture plate in a humidified CO2 (5%) incubator at 37 °C for 24h. Cell viabilities were measured using MTT assay as described in Materials and Methods Section. […]

Data set [6] can be described thus: MTT cell viability assay (CC50) on NIH-3T3 cells. It counts as cell-based. Particulars: mouse, NIH-3T3 fibroblast cells (non-tumour), NIH-3T3 non-cancer cells, mean ± S.D., read-out: CC50 (concentration that reduces the viable cell number by 50%).
Text: as §2
A549, H2170, and normal mouse fibroblast (NIH-3T3) cell lines were obtained from the Rio de Janeiro Cell Bank (BCRJ). […]
as §3
Figure S1. […] All data were reported as the mean ± S.D. CC50 (M) values were calculated from the dose response curve using Prim 7 software. […]

Data set [7] concerns vimentin in A549 cells. As to the kind of experiment: Vimentin expression by immunofluorescence and flow cytometry. It counts as cell-based, human. The following applies: 7 µM, 24 h. The procedure:
as §1
In another set of experiments, the analysis for vimentin, a well-recognized marker for its selective expression and specific role in the mesenchymal state, was performed. […] Stained cells were analyzed by a flow cytometer (FACSCanto II, Becton Dickinson, San Jose, CA, USA) accompanied with the BD FACSDIVA™ software for data analysis. The cell-associated fluorescence of 5000 cells per sample was measured as mean fluorescence intensity (MFI) in the FL1 channel. The MFI values were corrected for unspecific staining by subtracting the fluorescence of cells unstained (negative control).
Figure 3 Compound 9f downregulates the expression of mesenchymal cell marker vimentin in IL-1β-induced EMT. […] The mesenchymal markers vimentin was detected by immunofluorescence. […] Magnification ×400 for fluorescence microscope. […]
A general note: Flow cytometry measures light scatter and fluorescence of single cells or particles in a stream.

Consider `COc1ccccc1-c1ccc2oc(=O)ccc2c1` [Compound 9c], for which the “cytotoxicity (A549 cells viability, in words)” value (shortened to “cytotoxicity”) in data set [1] was “little or no cytotoxicity”.
In general, IC50 refers to the concentration that inhibits the measured activity by half. Turning to `CC(=O)Oc1ccc2cc(-c3ccc(S(C)(=O)=O)cc3)c(=O)oc2c1OC(C)=O` [8-(acetyloxy)-3-(4-methanesulfonylphenyl)-2-oxo-2H-chromen-7-yl acetate], the IC50 in data set [2] is 24.2 µM.
Turning to `O=c1ccc2ccc(Cc3ccccc3)cc2o1` [Compound 15], the “cytotoxicity” value in data set [1] is on record as “little or no cytotoxicity”.
The same measure, in the same setting: to `COc1ccccc1-c1ccc2ccc(=O)oc2c1` [Compound 8b] belongs “little or no cytotoxicity”.
Regarding `CC(C)=CCC/C(C)=C/CC/C(C)=C/COc1ccc2ccc(=O)oc2c1` [umbelliprenin], the IC50 in data set [2] was 52 ± 1.97 µM.
`O=c1ccc2cc(-c3ccc(Cl)c(Cl)c3)ccc2o1` [Compound 9f]: the “migration (wound closure)” value in data set [3] was “significantly reduced”. Further, the actin cytoskeleton reorganization result in data set [4] (FITC-labeled phalloidin) is given as “attenuated the changes in the actin cytoskeleton reorganization”. Also, the “morphological changes (mesenchymal characteristics) induced by IL-1β” value in data set [4] (phase-contrast microscopy) was “impairment in changes in its mesenchymal characteristics induced by IL-1β”. The CC50 is 3.3 ± 0.5 µM in data set [5] and 7.1 ± 0.8 µM in data set [1] (Homo sapiens, A549 cells, mean ± S.D., read-out: CC50 (concentration that reduces the viable cell number by 50%)). Also, the CC50 at 24 h in data set [6] is 25.8 µM. Moreover, the “expression of mesenchymal marker vimentin” value in data set [7] (IL-1β-stimulated (1 ng/mL) A549 cells) is given as “significantly diminished”. For the same compound, the “levels of vimentin expression” value in data set [7] (cells unstimulated with IL-1β) is reported as “did not change”.
In the case of `O=c1ccc2cc(Cc3ccccc3)ccc2o1` [Compound 14], the “cytotoxicity” value in data set [1] is listed as “little or no cytotoxicity”.
Same read-out and setting: the result for `O=c1ccc2cc(C#CCCCc3ccccc3)ccc2o1` [Compound 13b] reads “little or no cytotoxicity”; that for `O=c1ccc2ccc(CCc3ccccc3)cc2o1` [Compound 16], “little or no cytotoxicity”.
Same read-out and setting: to `O=c1ccc2ccc(C#CCO)cc2o1` [Compound 12c] belongs “little or no cytotoxicity”.

These data come from article PMC8782015, “Coumarin Derivatives Exert Anti-Lung Cancer Activity by Inhibition of Epithelial–Mesenchymal Transition and Migration in A549 Cells” (Pharmaceuticals, 2022).
